Our source for the IC50 values is US8883826B2, “Alkynyl derivatives as modulators of metabotropic glutamate receptors” (Addex Pharma SA, priority 2004, dated 2014).

Each structure is given as a SMILES string.

The target of this assay is T1, mGluR5 (Rattus norvegicus, UniProt P31424).
T1 construct: tissue Charles River Laboratories; host or cells: rat brain cortex membranes (Sprague-Dawley)
T1 sequence (P31424 21-1203): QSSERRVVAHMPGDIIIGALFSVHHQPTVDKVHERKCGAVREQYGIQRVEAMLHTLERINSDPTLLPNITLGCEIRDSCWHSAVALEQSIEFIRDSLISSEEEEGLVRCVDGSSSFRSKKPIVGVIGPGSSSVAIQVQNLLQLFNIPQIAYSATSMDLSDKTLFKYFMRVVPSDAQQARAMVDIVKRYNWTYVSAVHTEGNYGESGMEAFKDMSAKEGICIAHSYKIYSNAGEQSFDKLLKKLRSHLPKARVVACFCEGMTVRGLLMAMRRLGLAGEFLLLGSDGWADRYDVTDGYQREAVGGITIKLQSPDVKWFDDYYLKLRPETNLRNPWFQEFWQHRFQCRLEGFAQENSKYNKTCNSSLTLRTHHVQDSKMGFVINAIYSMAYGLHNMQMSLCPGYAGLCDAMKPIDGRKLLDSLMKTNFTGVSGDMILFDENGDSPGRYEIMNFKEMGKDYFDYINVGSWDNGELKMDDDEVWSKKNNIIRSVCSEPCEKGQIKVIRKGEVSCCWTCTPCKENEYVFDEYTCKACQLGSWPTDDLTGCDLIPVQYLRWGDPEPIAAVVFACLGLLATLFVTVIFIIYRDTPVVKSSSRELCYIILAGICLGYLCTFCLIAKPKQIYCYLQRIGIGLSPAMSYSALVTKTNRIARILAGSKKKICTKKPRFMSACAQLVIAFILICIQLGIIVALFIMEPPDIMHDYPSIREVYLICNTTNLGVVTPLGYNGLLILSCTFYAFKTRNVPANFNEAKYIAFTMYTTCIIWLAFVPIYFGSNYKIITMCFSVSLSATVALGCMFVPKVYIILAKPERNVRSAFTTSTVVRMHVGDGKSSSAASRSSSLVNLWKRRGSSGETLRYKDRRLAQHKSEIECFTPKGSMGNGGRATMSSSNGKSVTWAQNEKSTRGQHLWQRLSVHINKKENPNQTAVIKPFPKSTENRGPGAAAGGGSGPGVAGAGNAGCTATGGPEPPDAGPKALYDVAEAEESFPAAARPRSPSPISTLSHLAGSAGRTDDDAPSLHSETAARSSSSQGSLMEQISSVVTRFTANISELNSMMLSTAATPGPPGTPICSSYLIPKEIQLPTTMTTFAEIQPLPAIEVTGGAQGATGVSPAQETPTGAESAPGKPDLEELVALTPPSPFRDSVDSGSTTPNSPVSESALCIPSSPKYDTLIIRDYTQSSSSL
The assay can be described thus: mGluR5 binding assay ([3H]-MPEP radioligand competition). The note with it: competition with 3 nM [3H]-MPEP, rat brain cortical membranes, 1 h at 4 °C; mean of at least three independent experiments in duplicate. The source says:
Activity of compounds of the invention was examined following a radioligand binding technique using whole rat brain and tritiated 2-methyl-6-(phenylethynyl)-pyridine ([^3H]-MPEP) as a ligand following similar methods than those described in F. Gasparini et al. Bioorg. Med. Chem. Lett. 2002, 12, 407-409 and in J. F. Anderson et al. J. Pharmacol. Exp. Ther. 2002, 303, 3, 1044-1051.
Cortices were dissected out from brains of 200-300 g Sprague-Dawley rats (Charles River Laboratories, L'Arbresle, France). Tissues were homogenized in 10 volumes (vol/wt) of ice-cold 50 mM Hepes-NaOH (pH 7.4) using a Polytron disrupter (Kinematica AG, Luzern, Switzerland) and centrifuged for 30 min at 40,000 g. (4° C.). The supernatant was discarded and the pellet washed twice by resuspension in 10 volumes 50 mM HEPES-NaOH. Membranes were then collected by centrifugation and washed before final resuspension in 10 volumes of 20 mM HEPES-NaOH, pH 7.4. Protein concentration was determined by the Bradford method (Bio-Rad protein assay, Reinach, Switzerland) with bovine serum albumin as standard.
[^3H]-MPEP Binding Experiments:
Membranes were thawed and resuspended in binding buffer containing 20 mM HEPES-NaOH, 3 mM MgCl2, 3 mM CaCl2, 100 mM NaCl, pH 7.4. Competition studies were carried out by incubating for 1 h at 4° C.: 3 nM [^3H]-MPEP (39 Ci/mmol, Tocris, Cookson Ltd, Bristol, U.K.), 50 μg membrane and a concentration range of 0.003 nM-30 μM of compounds, for a total reaction volume of 300 μl. The non-specific binding was defined using 30 μM MPEP. Reaction was terminated by rapid filtration over glass-fiber filter plates (Unifilter 96-well GF/B filter plates, Perkin-Elmer, Schwerzenbach, Switzerland) using 4×400 μl ice cold buffer using cell harvester (Filtermate, Perkin-Elmer, Downers Grove, USA). Radioactivity was determined by liquid scintillation spectrometry using a 96-well plate reader (TopCount, Perkin-Elmer, Downers Grove, USA).
The inhibition curves were generated using the Prism GraphPad program (Graph Pad Software Inc, San Diego, USA). IC50 determinations were made from data obtained from 8 point-concentration response curves using a non linear regression analysis.
The table below represents the mean of IC50 obtained from at least three independent experiments of selected molecules performed in duplicate.
(In general: Loss of bound radioactivity is the signal in a displacement assay; it reports binding, not function.)
For `Clc1ccc(Cl)c(-c2noc(CCC#Cc3ccccn3)n2)c1` [Example 53, 2-(4-(3-(2,5-Dichlorophenyl)-1,2,4-oxadiazol-5-yl)but-1-ynyl)pyridine], the IC50 was under 10 µM.

`Cc1ccc(C)c(-c2noc(CCC#Cc3ccccn3)n2)c1` [Example 54, 2-(4-(3-(2,5-Dimethylphenyl)-1,2,4-oxadiazol-5-yl)but-1-ynyl)pyridine] registered an IC50 of under 10 µM. `Clc1cccc(Cl)c1-c1noc(CCC#Cc2ccccn2)n1` [Example 55, 2-(4-(3-(2,6-Dichlorophenyl)-1,2,4-oxadiazol-5-yl)but-1-ynyl)pyridine] gave a half-inhibitory concentration (IC50) of under 10 µM. Regarding `Clc1cccc(-c2noc(CCC#Cc3ccccn3)n2)c1Cl` [Example 56, 2-(4-(3-(2,3-Dichlorophenyl)-1,2,4-oxadiazol-5-yl)but-1-ynyl)pyridine], the IC50 is under 10 µM. The same measure for `Cc1cccc(Cl)c1-c1noc(CCC#Cc2ccccn2)n1` [Example 58, 2-(4-(3-(2-Chloro-6-methylphenyl)-1,2,4-oxadiazol-5-yl)but-1-ynyl)pyridine]: under 10 µM; for `FC(F)(F)Oc1ccccc1-c1noc(CCC#Cc2ccccn2)n1` [Example 61, 2-(4-(3-(2-(Trifluoromethoxy)phenyl)-1,2,4-oxadiazol-5-yl)but-1-ynyl)pyridine]: under 10 µM; for `Fc1ccc2nc(CCC#Cc3ccccn3)oc2c1` [Example 62, 6-Fluoro-2-(4-(pyridin-2-yl)but-3-ynyl)benzo[d]oxazole]: under 0.05 µM. To `Clc1cccc2nc(CCC#Cc3ccccn3)oc12` [Example 63, 7-Chloro-2-(4-(pyridin-2-yl)but-3-ynyl)benzo[d]oxazole] belongs under 0.05 µM. `Fc1cccc2nc(CCC#Cc3ccccn3)oc12` [Example 64, 7-Fluoro-2-(4-(pyridin-2-yl)but-3-ynyl)benzo[d]oxazole] showed an IC50 of under 0.05 µM.

As for `C(#Cc1ccccn1)CCc1ncc(-c2ccccc2)o1` [Example 65, 2-(4-(5-Phenyloxazol-2-yl)but-1-ynyl)pyridine], the half-maximal inhibitory concentration (IC50) was under 0.05 µM. To `Cc1c(Cl)cccc1-c1noc(CCC#Cc2ccccn2)n1` [Example 66, 2-(4-(3-(3-Chloro-2-methylphenyl)-1,2,4-oxadiazol-5-yl)but-1-ynyl)pyridine] belongs under 0.5 µM. Consider `Cc1cccn2cc(CCC#Cc3ccccn3)nc12` [Example 67, 8-Methyl-2-(4-(pyridin-2-yl)but-3-ynyl)-imidazo[1,2-a]pyridine], for which the IC50 was under 10 µM.

In the case of `Cc1cccc2nc(CCC#Cc3ccccn3)cn12` [Example 68, 5-Methyl-2-(4-(pyridin-2-yl)but-3-ynyl)-imidazo[1,2-a]pyridine], the IC50 is under 10 µM.

As to `C(#Cc1ccccn1)CCc1cn2c(-c3ccccc3)cccc2n1` [Example 69, 5-Phenyl-2-(4-(pyridin-2-yl)but-3-ynyl)-imidazo[1,2-a]pyridine], the IC50 was under 0.05 µM. The same measure for `Oc1cccc2oc(CCC#Cc3ccccn3)nc12` [Example 70, 2-(4-(Pyridin-2-yl)but-3-ynyl)benzo[d]oxazol-4-ol]: under 10 µM; for `Fc1ccc(C#CCCc2nc3ccccc3o2)nc1` [Example 71, 2-(4-(5-Fluoropyridin-2-yl)but-3-ynyl)benzo[d]oxazole]: under 10 µM; for `COc1cccc2oc(CCC#Cc3ccccn3)nc12` [Example 72, 4-Methoxy-2-(4-(pyridin-2-yl)but-3-ynyl)benzo[d]oxazole]: under 10 µM.

With `Cc1nc(C#CCCc2cn3ccccc3n2)cs1` [Example 73, 2-(4-(2-Methylthiazol-4-yl)but-3-ynyl)imidazo[1,2-a]pyridine], the IC50 was under 10 µM. In turn, `Fc1ccc2nc(CCC#Cc3ccccn3)cn2c1` [Example 74, 6-Fluoro-2-(4-(pyridin-2-yl)but-3-ynyl)-imidazo[1,2-a]pyridine] gave an IC50 of under 10 µM. As for `Fc1ccc(C#CCCc2cn3ccccc3n2)nc1` [Example 75, 2-(4-(5-Fluoropyridin-2-yl)but-3-ynyl)-imidazo[1,2-a]pyridine], the IC50 was under 10 µM. For `C(#Cc1ccccn1)CCc1nc2cccnc2o1` [Example 76, 2-(4-(Pyridin-2-yl)but-3-ynyl)oxazolo[5,4-b]pyridine], the IC50 was under 10 µM. To `Fc1cc(Cl)c2oc(CCC#Cc3ccccn3)nc2c1` [Example 77, 7-Chloro-5-fluoro-2-(4-(pyridin-2-yl)but-3-ynyl)benzo[d]oxazole] belongs under 0.05 µM. Take `C(#Cc1ccccn1)CCc1nc2ncccc2o1` [Example 78, 2-(4-(Pyridin-2-yl)but-3-ynyl)oxazolo[4,5-b]pyridine]: the IC50 was under 10 µM. The compound `N#Cc1ccc2oc(CCC#Cc3ccccn3)nc2c1` [Example 79, 2-(4-(Pyridin-2-yl)but-3-ynyl)benzo[d]oxazole-5-carbonitrile] showed an IC50 of under 10 µM.

For `Cc1nc(C#CCCc2nc3cc(F)cc(Cl)c3o2)cs1` [Example 80, 7-Chloro-5-fluoro-2-(4-(2-methylthiazol-4-yl)but-3-ynyl)benzo[d]oxazole], the IC50 is under 0.05 µM. With `FC(F)(F)c1cccc2nc(CCC#Cc3ccccn3)oc12` [Example 81, 7-(Trifluoromethyl)-2-(4-(pyridin-2-yl)but-3-ynyl)benzo[d]oxazole], the IC50 is under 0.05 µM.

Consider `Fc1cc(Br)c2oc(CCC#Cc3ccccn3)nc2c1` [Example 82, 7-Bromo-5-fluoro-2-(4-(pyridin-2-yl)but-3-ynyl)benzo[d]oxazole], for which the IC50 was under 0.05 µM.

`Fc1cc(-c2ccccc2)c2oc(CCC#Cc3ccccn3)nc2c1` [Example 83, 5-Fluoro-7-phenyl-2-(4-(pyridin-2-yl)but-3-ynyl)benzo[d]oxazole] showed an IC50 of under 10 µM. `Clc1nccc(C#CCCc2nc3ccccc3o2)n1` [Example 84, 2-(4-(2-Chloropyrimidin-4-yl)but-3-ynyl)benzo[d]oxazole] showed an IC50 of under 10 µM. `Brc1cccc2oc(CCC#Cc3ccccn3)nc12` [Example 86, 4-Bromo-2-(4-(pyridin-2-yl)but-3-ynyl)benzo[d]oxazole] had an IC50 of under 0.05 µM. For the compound `C(#Cc1ccccn1)CCc1nc2c(-c3ccccc3)cccc2o1` [Example 87, 4-Phenyl-2-(4-(pyridin-2-yl)but-3-ynyl)benzo[d]oxazole], the IC50 was under 10 µM. The same measure for `Clc1cccc2oc(CCC#Cc3ccccn3)nc12` [Example 88, 4-Chloro-2-(4-(pyridin-2-yl)but-3-ynyl)benzo[d]oxazole]: under 0.05 µM; for `Cc1cccc2nc(CCC#Cc3ccccn3)oc12` [Example 91, 7-Methyl-2-(4-(pyridin-2-yl)but-3-ynyl)benzo[d]oxazole]: under 0.05 µM; for `COc1cccc2nc(CCC#Cc3ccccn3)oc12` [Example 94, 7-Methoxy-2-(4-(pyridin-2-yl)but-3-ynyl)benzo[d]oxazole]: under 0.05 µM. The same measure for `CC(C)c1cccc2nc(CCC#Cc3ccccn3)oc12` [Example 95, 7-Isopropyl-2-(4-(pyridin-2-yl)but-3-ynyl)benzo[d]oxazole]: under 10 µM; for `Fc1ccc(F)c2oc(CCC#Cc3ccccn3)nc12` [Example 96, 4,7-Difluoro-2-(4-(pyridin-2-yl)but-3-ynyl)benzo[d]oxazole]: under 0.05 µM. The compound `Fc1ccc(C(F)(F)F)c2nc(CCC#Cc3ccccn3)oc12` [Example 97, 7-Fluoro-4-(trifluoromethyl)-2-(4-(pyridin-2-yl)but-3-ynyl)benzo[d]oxazole] displayed an IC50 of under 10 µM. `C(#Cc1ccncn1)CCc1nc2ccccc2o1` [Example 98, 2-(4-(Pyrimidin-4-yl)but-3-ynyl)benzo[d]oxazole] gave a half-maximal inhibitory concentration (IC50) of under 10 µM. The same measure for `CN(C(=O)CCC#Cc1ccccn1)c1cccc(Cl)c1` [Example 99, N-(3-Chlorophenyl)-N-methyl-5-(pyridin-2-yl)pent-4-ynamide]: under 10 µM; for `Cc1ccc(Cl)c2sc(CCC#Cc3ccccn3)nc12` [Example 100, 7-Chloro-4-methyl-2-(4-(pyridin-2-yl)but-3-ynyl)benzo[d]thiazole]: under 10 µM; for `Fc1cccc2sc(CCC#Cc3ccccn3)nc12` [Example 101, 4-Fluoro-2-(4-(pyridin-2-yl)but-3-ynyl)benzo[d]thiazole]: under 0.05 µM. The same measure for `Cc1ccc(C)c2sc(CCC#Cc3ccccn3)nc12` [Example 102, 4,7-Dimethyl-2-(4-(pyridin-2-yl)but-3-ynyl)benzo[d]thiazole]: under 10 µM.

As usually defined, the IC50 is the midpoint of a concentration-inhibition curve. Read a high IC50 as lower potency.
